“Also recorded” adds a separate entry of the source.

Assay [1] concerns p53. Put plainly: Effect of (+)-avrainvillamide incubation on p53/nucleophosmin, LNCaP cells (Western-blot). Conditions: 24 h. The assay is classed as cell-based, human. How it is done:
(§1) Four 6-well plates (two for each cell line) were charged with 6 mL per well of cell suspension at 2×10^5 cells/mL. […] The following day, stock solutions of (+)-avrainvillamide (1) in fresh cell culture medium were prepared as indicated below:
(§2) To each 6-mL sample, a 200-μL aliquot of the appropriate stock solution was added, resulting in a final concentration of 0-4 μM (+)-avrainvillamide (1). The samples were returned to the incubator (37° C., 5% CO2) for 24 h.
(§3) The cells were resuspended in 1 mL PBS and mixed thoroughly. A 500-μL aliquot from each sample was transferred to a fresh 1.5-mL centrifuge tube. All the samples were centrifuged (5 min at 500×g) and the supernatant was discarded. The resulting 20 samples (10 samples of T-47D cells, treated with 0-4 μM (+)-avrainvillamide, and 10 samples of LNCaP cells, treated with 0-4 μM (+)-avrainvillamide (1), where each sample contained the number of cells from 1 well of a 6-well plate) were separated into two groups. One group of samples was lysed in RIPA buffer (see below) to prepare a series of whole-cell lysates. The other group of samples was first treated with sucrose-hypotonic buffer to prepare a series of cytosolic lysates. The remaining pellets were washed and treated with RIPA buffer to prepare a series of nuclear-enriched lysates (see below).

The next assay relates to LNCaP and T-47D cells. Put plainly: Western blot for apoptotic markers in LNCaP and T-47D cells. The assay is classed as cell-based, human. In general terms: Immunoblotting shows a protein as a band on a membrane.
The conditions of assay [2]: previous report: 48-h incubation, MTS/PMS; cited from earlier work.
A further assay has as its target T1, exportin-1 (XPO1) (Homo sapiens, UniProt O14980).
T1 construct: endogenous in cells; host or cells: T-47D lysate
Put plainly: Competitive binding affinity-isolation with probe 5 in T-47D lysates, exportin-1. Conditions: 10 μM probe 5, 100 μM inhibitor. From the text:
(§4) The supernatant was discarded.
(§5) See above for solution preparation.

In another assay the test system is T-47D cells. Kind of assay: Cell cycle effects in T-47D cells. The assay is classed as cell-based, human.
The subject of assay [3] is HeLa S3 cells. Put plainly: Apoptosis in HeLa S3 cells (Yo-Pro cell permeability, annexin-binding). The assay is classed as cell-based, human. Conditions: Yo-Pro cell permeability and annexin-binding experiments.
Assay [4] concerns p53. Put plainly: Effect of (+)-avrainvillamide incubation on p53/nucleophosmin, T-47D cells (Western-blot). The assay is classed as cell-based, human. The note with it: 24 h. On the procedure:
as §1, §2, §3

Another assay has as its system proteins of T-47D cells. Kind of assay: Affinity-isolation from T-47D cells, LC-MS/MS analysis of proteins. Conditions: narrower region of the gel; equal concentrations.
For the next assay, the target named is T2, peroxiredoxin 1 (PRX1) (Homo sapiens, UniProt Q06830).
T2 construct: endogenous in cells; host or cells: T-47D lysate
Kind of assay: Competitive binding affinity-isolation with probe 5 in T-47D lysates, peroxiredoxin 1. Conditions: 10 μM probe 5, 100 μM inhibitor.
Excerpt: as §4, §5

The test system of assay [5] is MALME-3M and MALME-3 cells. Kind of assay: Selectivity assay, malignant melanoma MALME-3M versus fibroblast MALME-3. In kind it is cell-based. Conditions: for selectivity factor, melanoma cells relative to fibroblast control (LC25, 25 percent cell death, estimate of GI50): MALME-3M versus MALME-3. How it is done:
[…]. A cell line from a healthy fibroblast from the same patient has also been deposited with the American Type Cell Culture Corporation (ATCC). Fresh stockes of both MALME-3M and MALME-3 from ATCC. Avrainvillamide was test against the two cells lines at the same time, taking all possible precautions to ensure that both sets of samples were treated identically. […] As a measure of cytotoxicity and antiproliferative activity, we calculated both LC50 and LC25 (as an estimate of GI50).
The 9.7-fold selectivity at 25 percent cell death is representative of at least a modest degree of selectivity. For comparison, cytochalsine B and geldanamycin were analyzed in identical experiments. Cytochalasine B is a non-selective cytotoxic agent for which a selectivity factor of 0.2 at 25 percent cell death was observed. Geldanamycin is known to be a potent, selective inhibitor of tumor cell growth for which a selectivity factor of >100 at 25 percent cell death was observed.

Another assay deals with nucleophosmin (Homo sapiens, UniProt P06748). Put plainly: Competitive binding affinity-isolation with probe 5 in T-47D lysates, nucleophosmin.
Assay [6] deals with HeLa S3 cells. Put plainly: Transfection/apoptosis experiments in nucleophosmin-depleted HeLa S3 cells. In kind it is cell-based, human. The note with it: 24 h, Yo-Pro iodide/propidium iodide flow cytometry. How it is done: The concentration of the cell suspension was determined using a hemacytometer, and a suspension of 1×10^5 cells/mL was prepared.
A siRNA targeting NPM1.1 (Applied Biosystems, Cat. No. AM16708; ID 143640; 11.4 μL from a 50 μM stock solution) was added to Opti-MEM (938.6 μL). At the same time, a control siRNA (Applied Biosystems, Cat. No. AM4611; 11.4 μL from a 50 μM stock) was similarly added to Opti-MEM (938.6 μL).
The culture flasks were rinsed with an additional 5 mL medium, which was likewise added to the centrifuge tubes.
The concentration of the cell suspensions was determined using a hemacytometer. Over the course of the 2 d transfection period, both the transfected and mock-transfected cells grew ˜4-fold.
12-well plates were charged with 3 mL per well of suspensions of the transfected or mock-transfected cells, at 2.5×10^4 cells per mL. […] The following day, solutions of cell culture medium containing (+)-avrainvillamide or vehicle control were prepared. 500-μL aliquots of these solutions were added to the 3-mL samples. The treated samples were returned to the incubator (37° C., 5% CO2) for 24 h.
The supernatant was discarded, and the samples were cooled on ice. Apoptosis detection buffer (500 μL; see above for preparation) was added to each sample. […]
Each sample was analyzed on an LSRII flow cytometer, with 20,000 events recorded per sample. […]
(In flow cytometry, cells or beads pass a laser one at a time.)

Take `CC1(C)C=Cc2c(ccc3c2[N+]([O-])=C2C3=C[C@@]34NC(=O)C5(CCCN5C3=O)CC4C2(C)C)O1` (single isomer, unassigned; (+)) [compound 1, (+)-Avrainvillamide]: the “concentration giving a substantial increase in cellular p53” value in the assay with p53 [1] and in the assay on p53 [4] (Western-blot) was 500 nM in each case. Moreover, the “apoptotic markers (Western blot)” value in the assay on LNCaP and T-47D cells is on record as “appearance of pro-apoptotic factors”. Moreover, in assay [2], the “fold more potent than the unnatural enantiomer (antiproliferative activity)” value is roughly 9 fold. At exportin-1 (XPO1), the “blocking of the binding of probe 5 to exportin-1 (XPO1)” value is “capable of blocking”. Also, the “cell cycle accumulatory effects” value in the assay on T-47D cells is “immediate decrease in the number of cells in S-phase, followed by an increase in G2/M cells”. The “cell death in HeLa S3 cells” value in the assay on HeLa S3 cells [3] was “cell death through apoptosis”. In addition, the “cellular p53 at the highest concentration” value in the assay with p53 [4] (4 μM) is “reduction in cellular p53”. The “detection of nucleophosmin by LC-MS/MS after affinity isolation” value with proteins of T-47D cells is recorded as “not detected”. Further, the “blocking of the binding of probe 5 to peroxiredoxin 1 (PRX1)” value at peroxiredoxin 1 (PRX1) was “capable of blocking”. Besides, the “activity against MALME-3M cells” value in [5] (MALME-3M) was “nanomolar activity”. The “selectivity factor, melanoma cells relative to fibroblast control (LC25, 25 percent cell death, estimate of GI50)” value in assay [5] (listed as Avrainvillamide) is on record as 9.7; in assay [5] (listed as avrainvillamide) it was roughly 10. In addition, the “binding of nucleophosmin to probe 5 in the presence of a 10-fold higher concentration of competitor” value at nucleophosmin (10 μM probe 5, 100 μM competitor, nuclear-enriched and whole-cell T-47D lysates) was “inhibited; also recorded: most effective”. On nucleophosmin (T-47D lysate), the “concentration required for inhibition of probe 5-nucleophosmin binding” value worked out at 100 µM. For the same compound, the “inhibition of binding of nucleophosmin to probe 5 by analogues (FIG. 4)” value at nucleophosmin (T-47D nuclear-enriched lysate) is “inhibited essentially equivalently”. In addition, the “apoptosis in HeLa S3 cells reduced in nucleophosmin (siRNA) relative to mock-transfected cells” value in the assay on HeLa S3 cells [6] is “enhanced sensitivity”.

Values taken from patent publication US20110105515A1, “TARGETING THE ONCOPROTEIN NUCLEOPHOSMIN” (President and Fellows of Harvard College, priority 2007, published 2011).
